According to patent publication US20230278972A1, “SUBSTITUTED HALOALKYL SULFONANILIDE HERBICIDES” (FMC Corporation, priority 2020, published 2023):

Legend:
Type in all cases: in vivo
[1] = test system: goosegrass (Eleusine indica); test: Test A1 preemergence, goosegrass; details: 0 to 100 scale (0 no effect, 100 complete control)
Procedure, shortened: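 Test compounds were formulated in a non-phytotoxic solvent mixture containing a surfactant. For preemergence, seeds sown in a loam soil–sand blend received a directed soil spray. For postemergence, potted plants in the same soil, 2 to 10 cm tall at the one- to two-leaf stage, were sprayed.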

[2] = test system: ducksalad (Heteranthera limosa); test: Test B1 flooded paddy test, ducksalad; details: 250 g ai/ha, Flood, applied to paddy water, 2-leaf stage, visually evaluated after 10 to 14 days
Text: A dash (-) response means no test result.

[3] = test system: ragweed (common ragweed, Ambrosia artemisiifolia); test: Test A1 postemergence, ragweed; details: 0 to 100 scale (0 no effect, 100 complete control); for Ragweed plant response rating: 31 g ai/ha, postemergence; for Plant response rating, Ragweed: Postemergence, 125 g ai/ha, 10 days
Procedure, shortened: (§1)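 Plants were grown in a loam soil/sand blend, with test chemicals formulated in a non-phytotoxic solvent mixture containing surfactant. Preemergence treatment (corn) was a directed soil spray at planting. Postemergence treatment was applied to plants 2 to 10 cm tall at the one- to two-leaf stage.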

corn (Zea mays) = test: Test A1 preemergence, corn
Procedure, shortened: as §1

[4] = test system: goosegrass (Eleusine indica); test: Test A1 postemergence, goosegrass; details: 0 to 100 scale (0 no effect, 100 complete control); for Goosegrass plant response rating: 31 g ai/ha, postemergence; for Plant response rating, Goosegrass: Postemergence, 125 g ai/ha, 10 days
Procedure, shortened: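 Herbicidal response was scored on plants treated either preemergence, by directed spray onto soil of a loam–sand blend after sowing, or postemergence on potted plants at the one- to two-leaf stage, 2–10 cm high. Test chemicals were carried in a non-phytotoxic solvent mix with surfactant.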

[5] = test system: Oat, Wild (wild oat, Avena fatua); test: Test A1 postemergence, Oat, Wild; details: 0 to 100 scale (0 no effect, 100 complete control); for Oat, Wild plant response rating: 31 g ai/ha, postemergence; for Plant response rating, Oat, Wild: Postemergence, 125 g ai/ha, 10 days
Procedure, shortened: as §1

[6] = 31 g ai/ha, 0 to 100 scale (0 no effect, 100 complete control)
[7] = 125 g ai/ha, 0 to 100 scale, 0 no effect, 100 complete control

## Cc1cc(C)c(N2Cc3cccc(Br)c3C2=O)cc1NS(=O)(=O)Cl [Compound 415]
[1]; 31 g ai/ha
  Plant response rating, Goosegrass: 90
[1]; 125 g ai/ha
  Plant response rating, Goosegrass: 100
[2]
  Plant response rating, Ducksalad (0 to 100 scale, 0 is no effect, 100 is complete control): 65
[3]
  Ragweed plant response rating: 30
  Plant response rating, Ragweed: 70
Corn (Zea mays); [6]
  Plant response rating, Corn: 0
Corn (Zea mays); [7]
  Plant response rating, Corn: 80
[4]
  Goosegrass plant response rating: 70
  Plant response rating, Goosegrass: 90
[5]
  Oat, Wild plant response rating: 10
  Plant response rating, Oat, Wild: 30

## COc1cccc2c1C(=O)N(c1cc(N(COC(=O)C(C)(C)C)S(=O)(=O)Cl)c(C)cc1C)C2 [Compound 413]
[1]; 31 g ai/ha
  Plant response rating, Goosegrass: 50
[1]; 125 g ai/ha
  Plant response rating, Goosegrass: 80
[2]
  Plant response rating, Ducksalad (0 to 100 scale, 0 is no effect, 100 is complete control): 80
[3]
  Ragweed plant response rating: 60
  Plant response rating, Ragweed: 90
Corn (Zea mays); [6]
  Plant response rating, Corn: 0
Corn (Zea mays); [7]
  Plant response rating, Corn: 10
[4]
  Goosegrass plant response rating: 0
  Plant response rating, Goosegrass: 0
[5]
  Oat, Wild plant response rating: 0
  Plant response rating, Oat, Wild: 0
